These results are taken from patent publication US12091405B2, “Substituted pyrazole compounds as indoleamine 2,3-dioxygenase inhibitors” (Merck Sharp & Dohme LLC, priority 2018, dated 2024).

pIC50: −log10 of the molar value.

The target of this assay is IDO1 (Homo sapiens, UniProt P14902). Put plainly: IDO1 Cellular Assay in HeLa Cells Stimulated with IFNγ. In kind it is cell-based. The following applies: IFNγ 100 ng/mL, 300 uM L-tryptophan, about 48 hours, fluorescence readout, read-out: IDO1 HELA Cell Assay, IC50.
Chain of IDO1 (P14902 whole entry): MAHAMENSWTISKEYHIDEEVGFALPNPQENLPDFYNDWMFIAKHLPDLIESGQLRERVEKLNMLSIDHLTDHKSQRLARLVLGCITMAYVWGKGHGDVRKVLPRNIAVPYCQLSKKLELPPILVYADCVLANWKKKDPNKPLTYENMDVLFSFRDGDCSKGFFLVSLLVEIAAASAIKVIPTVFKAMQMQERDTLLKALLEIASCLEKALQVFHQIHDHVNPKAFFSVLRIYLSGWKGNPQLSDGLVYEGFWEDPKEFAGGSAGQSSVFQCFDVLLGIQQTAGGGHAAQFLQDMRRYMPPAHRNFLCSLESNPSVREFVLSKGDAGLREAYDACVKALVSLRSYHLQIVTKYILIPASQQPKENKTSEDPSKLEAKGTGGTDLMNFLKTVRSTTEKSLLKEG

The pIC50 is the negative decadic logarithm of the IC50, by convention in mol/L. Consider `C[C@@H]1CN(C(=O)c2nn(CC(=O)N3CCC(c4cccc5ccccc45)CC3)c3c2CCC3)C[C@H](C)O1` [Example 69, 2-{3-[(2R,6S)-2,6-dimethylmorpholine-4-carbonyl]-5,6-dihydrocyclopenta[c]pyrazol-1(4H)-yl}-1-[4-(naphthalen-1-yl)piperidin-1-yl]ethan-1-one], for which the negative logarithm of the IC50 (pIC50) was 8.19. For the compound `Cc1cccc(C2CCN(C(=O)Cn3nc(C(=O)N4CCC(C)(O)CC4)c4c3CCC4)CC2)c1C` [Example 40, 1-(4-(2,3-dimethylphenyl)piperidin-1-yl)-2-(3-(4-hydroxy-4-methylpiperidine-1-carbonyl)-5,6-dihydrocyclopenta[c]pyrazol-1(4H)-yl)ethan-1-one], the negative-log IC50 (pIC50) is 8.55.

For the compound `C[C@@H]1CN(C(=O)c2nn(CC(=O)N3CCC(c4ccccc4C(F)(F)F)C3)c3c2CCC3)C[C@H](C)O1` (stereo partly drawn) [Example 73, 2-{3-[(2R,6S)-2,6-dimethylmorpholine-4-carbonyl]-5,6-dihydrocyclopenta[c]pyrazol-1(4H)-yl}-1-{3-[2-(trifluoromethyl)phenyl]pyrrolidin-1-yl}ethan-1-one], the pIC50 was 6.82. The figure for `Cc1cccc(C2CCN(C(=O)Cn3nc(C(=O)N4CC(C)(O)C4)c4c3CCC4)CC2)c1C` [Example 50, 1-(4-(2,3-dimethylphenyl)piperidin-1-yl)-2-(3-(3-hydroxy-3-methylazetidine-1-carbonyl)-5,6-dihydrocyclopenta[c]pyrazol-1(4H)-yl)ethan-1-one] is 7.40; for `Cc1cccc(C2(F)CCN(C(=O)Cn3nc(C(=O)N4CCC(O)CC4)c4c3C[C@H]3C[C@@H]43)CC2)c1C` [Example 10, 1-(4-(2,3-dimethylphenyl)-4-fluoropiperidin-1-yl)-2-((3bR,4aR)-3-(4-hydroxypiperidine-1-carbonyl)-3b,4,4a,5-tetrahydro-1H-cyclopropa[3,4]cyclopenta[1,2-c]pyrazol-1-yl)ethanone] it is 8.47. As to `C[C@@H]1CN(C(=O)c2nn(CC(=O)N3CCC(c4c(F)ccc(F)c4F)CC3)c3c2CCC3)C[C@H](C)O1` [Example 152, 2-{3-[(2R,6S)-2,6-dimethylmorpholine-4-carbonyl]-5,6-dihydrocyclopenta[c]pyrazol-1(4H)-yl}-1-[4-(2,3,6-trifluorophenyl)piperidin-1-yl]ethan-1-one], the pIC50 was 6.90.

For the compound `Cc1ccc(F)c(C2CCN(C(=O)Cn3nc(C(=O)N4C[C@@H](C)O[C@@H](C)C4)c4c3CCC4)CC2)c1` [Example 119, 2-{3-[(2R,6S)-2,6-dimethylmorpholine-4-carbonyl]-5,6-dihydrocyclopenta[c]pyrazol-1(4H)-yl}-1-[4-(2-fluoro-5-methylphenyl)piperidin-1-yl]ethan-1-one], the pIC50 is 7.28. Consider `Cc1cccc(C2CCN(C(=O)Cn3nc(C(=O)N4CC[C@@H](O)C4)c4c3CCC4)CC2)c1C` [Example 51, (R)-1-(4-(2,3-dimethylphenyl)piperidin-1-yl)-2-(3-(3-hydroxypyrrolidine-1-carbonyl)-5,6-dihydrocyclopenta[c]pyrazol-1(4H)-yl)ethan-1-one], for which the negative-log IC50 (pIC50) is 7.34. Take `COc1c(F)cc(C2CCN(C(=O)Cn3nc(C(=O)N4C[C@@H](C)O[C@@H](C)C4)c4c3CCC4)CC2)cc1F` [Example 134, 1-[4-(3,5-difluoro-4-methoxyphenyl)piperidin-1-yl]-2-{3-[(2R,6S)-2,6-dimethylmorpholine-4-carbonyl]-5,6-dihydrocyclopenta[c]pyrazol-1(4H)-yl}ethan-1-one]: the pIC50 was 7.09. As for `C[C@@H]1CN(C(=O)c2nn(CC(=O)N3CCC(c4ccc(Cl)c(F)c4)CC3)c3c2CCC3)C[C@H](C)O1` [Example 112, 1-[4-(4-chloro-3-fluorophenyl)piperidin-1-yl]-2-{3-[(2R,6S)-2,6-dimethylmorpholine-4-carbonyl]-5,6-dihydrocyclopenta[c]pyrazol-1(4H)-yl}ethan-1-one], the pIC50 is 7.39.

For `COc1c(F)cc(C2CCN(C(=O)Cn3nc(C(=O)N4C[C@@H](C)O[C@@H](C)C4)c4c3CCC4)CC2)cc1Cl` [Example 95, 1-[4-(3-chloro-5-fluoro-4-methoxyphenyl)piperidin-1-yl]-2-{3-[(2R,6S)-2,6-dimethylmorpholine-4-carbonyl]-5,6-dihydrocyclopenta[c]pyrazol-1(4H)-yl}ethan-1-one], the negative logarithm of the IC50 (pIC50) was 7.71. `O=C(Cn1nc(C(=O)N2CCC(O)CC2)c2c1CCC2)N1CCC(c2cccc3c2CC3)CC1` [Example 16, 1-(4-(bicyclo[4.2.0]octa-1(6),2,4-trien-2-yl)piperidin-1-yl)-2-(3-(4-hydroxypiperidine-1-carbonyl)-5,6-dihydrocyclopenta[c]pyrazol-1(4H)-yl)ethanone]: the negative-log IC50 (pIC50) was 7.60. `Cc1c(C2CCN(C(=O)Cn3nc(C(=O)N4CCN(CC(N)=O)CC4)c4c3C[C@H]3C[C@@H]43)CC2)cccc1C(F)(F)F` [Example 6, 2-(4-((3bR,4aR)-1-(2-(4-(2-methyl-3-(trifluoromethyl)phenyl)piperidin-1-yl)-2-oxoethyl)-3b,4,4a,5-tetrahydro-1H-cyclopropa[3,4]cyclopenta[1,2-c]pyrazole-3-carbonyl)piperazin-1-yl)acetamide]: the pIC50 is 8.60. `C[C@@H]1CN(C(=O)c2nn(CC(=O)N3CCC(c4cccc5c4OC(F)(F)O5)CC3)c3c2CCC3)C[C@H](C)O1` [Example 153, 1-[4-(2,2-difluoro-2H-1,3-benzodioxol-4-yl)piperidin-1-yl]-2-{3-[(2R,6S)-2,6-dimethylmorpholine-4-carbonyl]-5,6-dihydrocyclopenta[c]pyrazol-1(4H)-yl}ethan-1-one]: the negative-log IC50 (pIC50) is 6.86. The figure for `C[C@@H]1CN(C(=O)c2nn(CC(=O)N3CCC(c4ccc(F)cc4)CC3)c3c2CCC3)C[C@H](C)O1` [Example 68, 2-{3-[(2R,6S)-2,6-dimethylmorpholine-4-carbonyl]-5,6-dihydrocyclopenta[c]pyrazol-1(4H)-yl}-1-[4-(4-fluorophenyl)piperidin-1-yl]ethan-1-one] is 7.15. As to `C[C@@H]1CN(C(=O)c2nn(CC(=O)N3CCC(c4ccc(Cl)c(Cl)c4)CC3)c3c2CCC3)C[C@H](C)O1` [Example 123, 1-[4-(3,4-dichlorophenyl)piperidin-1-yl]-2-{3-[(2R,6S)-2,6-dimethylmorpholine-4-carbonyl]-5,6-dihydrocyclopenta[c]pyrazol-1(4H)-yl}ethan-1-one], the negative-log IC50 (pIC50) is 7.26. As to `C[C@@H]1CN(C(=O)c2nn(CC(=O)N3CCC(c4ccc(F)c(Cl)c4)CC3)c3c2CCC3)C[C@H](C)O1` [Example 100, 1-[4-(3-chloro-4-fluorophenyl)piperidin-1-yl]-2-{3-[(2R,6S)-2,6-dimethylmorpholine-4-carbonyl]-5,6-dihydrocyclopenta[c]pyrazol-1(4H)-yl}ethan-1-one], the negative logarithm of the IC50 (pIC50) is 7.56. `Cc1c(C2CCN(C(=O)Cn3nc(C(=O)N4CCO[C@H](CO)C4)c4c3C[C@H]3C[C@@H]43)CC2)cccc1C(F)(F)F` [Example 4, 2-((3bR,4aR)-3-((S)-2-(hydroxymethyl)morpholine-4-carbonyl)-3b,4,4a,5-tetrahydro-1H-cyclopropa[3,4]cyclopenta[1,2-c]pyrazol-1-yl)-1-(4-(2-methyl-3-(trifluoromethyl)phenyl)piperidin-1-yl)ethanone]: the negative logarithm of the IC50 (pIC50) was 8.52. To `C[C@@H]1CN(C(=O)c2nn(CC(=O)N3CCC(c4ccccc4)C(F)(F)C3)c3c2CCC3)C[C@H](C)O1` (stereo partly drawn) [Example 72, 1-(3,3-difluoro-4-phenylpiperidin-1-yl)-2-{3-[(2R,6S)-2,6-dimethylmorpholine-4-carbonyl]-5,6-dihydrocyclopenta[c]pyrazol-1(4H)-yl}ethan-1-one] belongs 6.84. `CCc1ccccc1C1CCN(C(=O)Cn2nc(C(=O)N3C[C@@H](C)O[C@@H](C)C3)c3c2CCC3)CC1` [Example 109, 2-{3-[(2R,6S)-2,6-dimethylmorpholine-4-carbonyl]-5,6-dihydrocyclopenta[c]pyrazol-1(4H)-yl}-1-[4-(2-ethylphenyl)piperidin-1-yl]ethan-1-one]: the negative-log IC50 (pIC50) is 7.42. The figure for `Cc1ccc(C2CCN(C(=O)Cn3nc(C(=O)N4C[C@@H](C)O[C@@H](C)C4)c4c3CCC4)CC2)cc1F` [Example 91, 2-{3-[(2R,6S)-2,6-dimethylmorpholine-4-carbonyl]-5,6-dihydrocyclopenta[c]pyrazol-1(4H)-yl}-1-[4-(3-fluoro-4-methylphenyl)piperidin-1-yl]ethan-1-one] is 7.92; for `Cc1cccc(C2CCN(C(=O)Cn3nc(C(=O)N4CC[C@H](O)C4)c4c3CCC4)CC2)c1C` [Example 48, (S)-1-(4-(2,3-dimethylphenyl)piperidin-1-yl)-2-(3-(3-hydroxypyrrolidine-1-carbonyl)-5,6-dihydrocyclopenta[c]pyrazol-1(4H)-yl)ethan-1-one] it is 7.57; for `C[C@@H]1CN(C(=O)c2nn(CC(=O)N3CCC(c4ccc(F)c(C(F)(F)F)c4)CC3)c3c2CCC3)C[C@H](C)O1` [Example 151, 2-{3-[(2R,6S)-2,6-dimethylmorpholine-4-carbonyl]-5,6-dihydrocyclopenta[c]pyrazol-1(4H)-yl}-1-{4-[4-fluoro-3-(trifluoromethyl)phenyl]piperidin-1-yl}ethan-1-one] it is 6.90. As for `Cc1cccc(C2CCN(C(=O)Cn3nc(C(=O)N4CC[C@@H](O)[C@H](F)C4)c4c3C[C@H]3C[C@@H]43)CC2)c1C` [Example 24, 1-[4-(2,3-dimethylphenyl)piperidin-1-yl]-2-{(3bR,4aR)-3-[(3R,4R)-3-fluoro-4-hydroxypiperidine-1-carbonyl]-3b,4,4a,5-tetrahydro-1H-cyclopropa[3,4]cyclopenta[1,2-c]pyrazol-1-yl}ethan-1-one], the negative logarithm of the IC50 (pIC50) was 8.92.

Consider `Cc1cccc(F)c1C1CCN(C(=O)Cn2nc(C(=O)N3C[C@@H](C)O[C@@H](C)C3)c3c2CCC3)CC1` [Example 158, 2-{3-[(2R,6S)-2,6-dimethylmorpholine-4-carbonyl]-5,6-dihydrocyclopenta[c]pyrazol-1(4H)-yl}-1-[4-(2-fluoro-6-methylphenyl)piperidin-1-yl]ethan-1-one], for which the pIC50 is 6.81.
